In patent US20200392497A1, “METHODS AND COMPOSITIONS FOR DETECTING AND PROMOTING CARDIOLIPIN REMODELING AND CARDIOMYOCYTE MATURATION AND RELATED METHODS OF TREATING MITOCHONDRIAL DYSFUNCTION” (University of Washington, priority 2017, published 2020):

System: HADHA Mut CMs
Test: Seahorse MitoStress assay, proton leak in fatty acid challenged HADHA Mut CMs
Type: cell-based, human
Details: 1 nM, 12D Glc+FA media, vs non-treated Mut CMs
Excerpt: To better understand the pathological state of HADHA Mut and KO CMs exposed to chronic FAs, their mitochondria were functionally assessed. […] Because exposure to FAs led to a reduction in mitochondrial membrane potential and reduced ATP production, it was postulated that this may be due in part to an increased proton leak.
The Seahorse XF96 extracellular flux analyzer was used to assess mitochondrial function as previously described [Kuppusamy, K. T., et al., Let-7 family of microRNA is required for maturation and adult-like metabolism in stem cell-derived cardiomyocytes. Proc Natl Acad Sci U.S.A., 2015]. The plates were pre-treated with 1:60 diluted Matrigel reduced growth factor (Corning). […] The OCR values were further normalized to the number of cells present in each well, quantified by the Hoechst staining (Hoechst 33342; Sigma-Aldrich) as measured using fluorescence at 355 nm excitation and 460 nm emission. […] ATP production was calculated as the difference between the basal respiration and respiration after oligomycin. Proton leak was calculated as the difference between respiration after oligomycin and after antimycin & rotenone. Cellular capacity to utilize palmitate as an energy source was calculated as the difference between the average OCR after second palmitate addition and the final respiration value before the second addition of palmitate. […]

Substance: elamipretide [SS-31]
- proton leak (OCR after oligomycin minus OCR after antimycin & rotenone): significantly lower
- proton leak (OCR after oligomycin minus OCR after antimycin & rotenone) (listed as elamipretide (SS-31)): rescued the increased proton leak
